The text below walks through data of ChEMBL document CHEMBL1201862, “PubChem BioAssay data set” (2004).

The target in one assay is Genome polyprotein (dengue virus type 2, UniProt P29990). The experiment in a line: flavivirus cap methylation enzyme inhibition – biochemical, confirmation dose response, primary screen (AID 588689). In kind it is functional.
Assay [1] has as its target T1, Zinc finger protein mex-5 (Caenorhabditis elegans, UniProt Q9XUB2).
T1 sequence (Q9XUB2 whole entry): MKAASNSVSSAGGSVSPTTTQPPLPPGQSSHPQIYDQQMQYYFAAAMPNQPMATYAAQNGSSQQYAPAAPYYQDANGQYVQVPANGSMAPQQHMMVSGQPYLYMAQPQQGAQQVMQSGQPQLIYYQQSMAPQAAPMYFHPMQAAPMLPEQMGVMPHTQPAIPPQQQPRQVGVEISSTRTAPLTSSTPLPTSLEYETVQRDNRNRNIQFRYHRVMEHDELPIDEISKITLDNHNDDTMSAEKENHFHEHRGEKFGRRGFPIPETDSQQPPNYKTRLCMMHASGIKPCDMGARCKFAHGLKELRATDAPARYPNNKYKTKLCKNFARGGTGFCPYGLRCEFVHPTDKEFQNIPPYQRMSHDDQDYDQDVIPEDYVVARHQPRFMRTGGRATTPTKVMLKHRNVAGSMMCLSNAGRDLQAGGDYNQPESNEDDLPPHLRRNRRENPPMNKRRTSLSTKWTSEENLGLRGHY
Nature of the assay: potency of MEX-5 RNA-binding blockers – biochemical, C. elegans, fluorescence polarization, dose response (AID 1960). (In general: Polarisation of emitted light reports the rotation of a fluorescent probe.)

Assay [2] addresses UDP-galactopyranose mutase (Mycobacterium tuberculosis, UniProt P9WIQ1). The experiment in a line: Inhibitors of Mycobacterium tuberculosis UDP-galactopyranose mutase (UGM) enzyme Measured in Biochemical System Using Plate Reader - 2105-02_Inhibitor_Dose_CherryPick_Activity. [Related pubchem assays (depositor defined):AID504439].
Assay [3] can be described thus: Luminescence Cell-Based Dose Retest to Confirm Inhibitors of Cancer Stem Cells. [Related pubchem assays (depositor defined):AID2717, AID2721]. In kind it is functional. The following applies: Homo sapiens.
The test system of a further assay is HEK293. Nature of the assay: NOD2 signaling inhibitors in MDP-stimulated cells, cell-based, uHTS, luminescence (AID 2001). In kind it is functional. The following applies: Homo sapiens.
Assay [4] in a line: viability of PTEN-deleted HCT116 cells – cell-based, HCT116 PTEN knockout, dose response (AID 1047).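 Note: HCT116 colon tumor cells with PTEN knocked out; cells exposed to compound for 60 hours before readout; potency for loss of cell viability measured by luminescence.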 It is filed as functional.
The target of assay [5] is T2, Mitochondrial peptide methionine sulfoxide reductase (Bos taurus, UniProt P54149).
T2 sequence (P54149 whole entry): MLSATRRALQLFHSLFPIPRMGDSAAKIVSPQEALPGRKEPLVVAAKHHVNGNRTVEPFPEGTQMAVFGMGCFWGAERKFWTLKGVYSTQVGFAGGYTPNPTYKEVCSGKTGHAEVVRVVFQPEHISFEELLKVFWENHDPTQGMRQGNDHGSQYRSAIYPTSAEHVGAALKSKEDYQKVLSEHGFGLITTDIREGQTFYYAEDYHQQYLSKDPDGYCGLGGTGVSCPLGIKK
Nature of the assay: Absorbance-based biochemical high throughput dose response assay for activators of Methionine sulfoxide reductase A (MsrA). In kind it is functional.

A short description of assay [6]: viability of HCT116 lacking mutant beta-catenin – cell-based, human colon tumor, dose response (AID 1045).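 Note: HCT116 colon tumor cells with beta catenin knocked out; cells exposed to compound for 60 hours.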 It is filed as functional.
Assay [7] addresses Photoreceptor-specific nuclear receptor (Homo sapiens, UniProt Q9Y5X4). In kind it is functional, cell-based.

Active and inactive are the calls of the source. Where only a bound is given, the exact number is not on record here.

Sequence of Genome polyprotein (P29990 2492-3391 limits assumed): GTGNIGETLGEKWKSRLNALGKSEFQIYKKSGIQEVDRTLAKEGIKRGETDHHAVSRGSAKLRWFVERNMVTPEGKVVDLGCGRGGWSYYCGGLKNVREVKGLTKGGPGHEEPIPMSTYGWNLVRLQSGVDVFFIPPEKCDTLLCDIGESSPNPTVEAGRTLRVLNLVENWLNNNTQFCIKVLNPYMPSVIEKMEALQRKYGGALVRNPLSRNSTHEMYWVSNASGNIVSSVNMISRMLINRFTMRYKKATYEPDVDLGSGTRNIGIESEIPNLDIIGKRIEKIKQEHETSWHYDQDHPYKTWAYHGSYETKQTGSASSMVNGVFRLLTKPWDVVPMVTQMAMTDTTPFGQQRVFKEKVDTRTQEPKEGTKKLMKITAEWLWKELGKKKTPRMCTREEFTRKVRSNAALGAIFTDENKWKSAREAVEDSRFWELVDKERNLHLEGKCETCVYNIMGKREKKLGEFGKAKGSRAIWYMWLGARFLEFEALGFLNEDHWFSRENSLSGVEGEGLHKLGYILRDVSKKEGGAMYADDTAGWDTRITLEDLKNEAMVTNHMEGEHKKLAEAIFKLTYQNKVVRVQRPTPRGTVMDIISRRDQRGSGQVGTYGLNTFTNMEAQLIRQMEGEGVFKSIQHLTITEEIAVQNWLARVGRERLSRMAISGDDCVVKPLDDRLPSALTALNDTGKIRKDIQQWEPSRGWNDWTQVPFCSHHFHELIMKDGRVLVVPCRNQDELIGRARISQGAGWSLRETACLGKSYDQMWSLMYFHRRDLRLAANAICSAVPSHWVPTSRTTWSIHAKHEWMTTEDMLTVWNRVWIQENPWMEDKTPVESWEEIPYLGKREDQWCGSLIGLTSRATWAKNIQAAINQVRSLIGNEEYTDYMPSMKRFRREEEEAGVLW
Sequence of Photoreceptor-specific nuclear receptor (Q9Y5X4 whole entry): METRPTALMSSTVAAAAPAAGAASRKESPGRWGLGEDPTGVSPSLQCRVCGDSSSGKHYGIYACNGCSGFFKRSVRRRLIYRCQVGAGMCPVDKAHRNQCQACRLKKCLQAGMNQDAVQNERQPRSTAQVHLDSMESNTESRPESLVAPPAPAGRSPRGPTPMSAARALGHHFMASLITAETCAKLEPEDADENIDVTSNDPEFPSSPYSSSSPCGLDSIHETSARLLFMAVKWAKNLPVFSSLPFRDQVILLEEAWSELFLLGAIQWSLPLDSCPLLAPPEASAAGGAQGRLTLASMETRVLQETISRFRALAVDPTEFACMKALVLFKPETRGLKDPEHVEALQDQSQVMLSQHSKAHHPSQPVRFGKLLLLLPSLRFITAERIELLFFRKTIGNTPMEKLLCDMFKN
Sequence of UDP-galactopyranose mutase (P9WIQ1 whole entry): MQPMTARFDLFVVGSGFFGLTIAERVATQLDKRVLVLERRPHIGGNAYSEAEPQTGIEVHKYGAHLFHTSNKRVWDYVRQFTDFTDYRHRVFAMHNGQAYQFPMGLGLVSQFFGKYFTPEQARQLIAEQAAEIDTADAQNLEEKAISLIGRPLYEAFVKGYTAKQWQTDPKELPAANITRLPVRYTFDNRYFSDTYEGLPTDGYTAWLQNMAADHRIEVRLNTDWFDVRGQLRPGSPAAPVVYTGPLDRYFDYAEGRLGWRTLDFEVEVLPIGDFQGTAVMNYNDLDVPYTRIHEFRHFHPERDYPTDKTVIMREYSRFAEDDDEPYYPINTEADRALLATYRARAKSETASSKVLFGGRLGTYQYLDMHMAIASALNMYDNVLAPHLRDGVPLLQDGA

Consider `CC(C)c1ccc(S(=O)(=O)/N=C2\C=C(NS(=O)(=O)c3ccccc3)C(=O)c3ccccc32)cc1`, for which the concentration for half-maximal inhibition (IC50) (commonly the concentration needed to halve the response being measured) on Genome polyprotein is 25.7 µM (active).
As for `O=[N+]([O-])c1ccc(/C=N/n2cnc3ccccc32)s1`, the EC50 (commonly the concentration at which the effect is half-maximal) in [1] is > 300 µM (inconclusive). In addition, the results for the AC50 in assay [2] and in assay [3] were 148 µM (active) and 3.84 µM (active), respectively.
`CCSc1nsc(NC(=O)Nc2cccc(F)c2)n1`: the IC50 in the assay with HEK293 was 3.82 µM (inactive).
Consider `COc1ccc(CNC(=O)c2c(C)oc3c2C(=O)c2ccccc2C3=O)cc1`, for which the EC50 was 20.1 µM (active) in [4], > 104 µM (inactive) in assay [5] and 13.9 µM (active) in assay [6]. For the same compound, the IC50 in assay [7] was 1.21 µM (active).
